Laboratory results: publication PMC6627746, “Pharmacological Properties of the Type 1 Tyramine Receptor in the Diamondback Moth, Plutella xylostella” (International Journal of Molecular Sciences, 2019)

Tests used:
[1] = target: T1, PxTAR1 (Plutella xylostella, UniProt A0A4D6I7S9); test: intracellular Ca2+ assay, Cal-590 AM, confocal imaging, stable HEK-293 line; format: cell-based
T1 construct: gene tar1; full-length ORF, 467 residues, 52266 Da; lentiviral vector pEB-TAR1-3flag-copGFP(T2A)PURO (3flag tag, GFP co-expressed via T2A)
T1 sequence (A0A4D6I7S9 1-467): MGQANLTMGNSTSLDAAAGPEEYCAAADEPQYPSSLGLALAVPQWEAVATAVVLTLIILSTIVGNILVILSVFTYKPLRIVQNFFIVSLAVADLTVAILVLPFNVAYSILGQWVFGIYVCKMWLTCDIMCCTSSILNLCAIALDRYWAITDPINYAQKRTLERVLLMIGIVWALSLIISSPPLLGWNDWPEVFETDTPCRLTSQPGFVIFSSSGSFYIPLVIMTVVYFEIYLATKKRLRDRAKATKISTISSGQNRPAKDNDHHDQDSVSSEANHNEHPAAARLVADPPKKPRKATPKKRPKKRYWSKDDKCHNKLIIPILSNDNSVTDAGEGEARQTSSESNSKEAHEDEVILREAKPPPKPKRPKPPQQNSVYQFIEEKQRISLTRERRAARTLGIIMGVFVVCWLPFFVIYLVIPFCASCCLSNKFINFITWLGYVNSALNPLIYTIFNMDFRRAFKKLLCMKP

[2] = target: T1, PxTAR1; test: cAMP ELISA (Parameter Assay Kit), TAR1/[…] cells; format: cell-based

| Compound | EC50 [1] | IC50 [2] |
| --- | --- | --- |
| C=C(C)[C@@H]1CC=C(C)C(=O)C1 [L(-)-carvone] | 1.15 nM |  |
| NCCc1ccc(O)cc1 [tyramine] | 13.1 nM | 446 nM |
| CNC=Nc1ccc(C)cc1C [DPMF, N2-(2,4-Dimethylphenyl)-N1-methyformamidine] | 84.5 nM |  |
| NC[C@H](O)c1ccc(O)cc1 [octopamine] |  | 13700 nM |
